# Source: patent US5969174A, “Competitive inhibitors of glyoxalase I and method of generating such competitive inhibitors inside tumor cells” (priority 1998, dated 1999)
# “Also recorded” adds a separate entry of the source. Read-outs that look alike come from different tables or passages of the source.
# Key:
# HL60 cells = conditions: cited from earlier work
# tumor cells = conditions: literature (5-8); cited from earlier work
# [1] = Stability in mouse serum/plasma; type: in vitro ADME
# L1210 cells [2] = test: Growth inhibition / cytotoxicity, murine leukemia L1210 cells in culture; type: cell-based; conditions: for IC50: L1210, 48 h; for greater potency of sulfoxide versus diethyl ester: L1210 cells
# L1210 cells [3] = test: Cell permeability / intracellular appearance of enediol analog in L1210 cells; type: in vitro ADME, murine
# Protocol: In order to understand the mechanism of intracellular delivery of the enediol analogs, suspensions of L1210 cells were separately incubated with the diacid 2 and with the corresponding diethyl ester 2(Et)2. The rate of appearance of these species in the intracellular fraction was then monitored as a function of time by reverse-phase HPLC (FIG. 4). […] After 90 minutes, the concentration of 2 decreased, possibly due to a combination of factors including (a) 10-20% cell death over the course of the experiment, (b) hydrolytic deethylation of extracellular 2(Et)2, and (c) GlxII-catalyzed decarbamoylation of intracellular 2.
# To suspensions of L1210 cells (~1.5(10^6 cells/ml) in RPMI 1640 medium, containing 10% heat-inactivated fetal calf serum, gentamycin (10 μg/ml) and L-glutamate, at 37° C., were added fixed concentrations of 2a. Aliquots (1 ml) were removed from the cell suspension as a function of time, overlaid onto 0.4 ml of silicone oil (SF-1250 silicone fluids, General Electric Co., Silicone Products Division, Waterford, N.Y.) contained in an eppendorf centrifuge tube and centrifuged at 11,000×g (15 min) at 25° C. The supernatant and silicone oil were decanted from the cell pellet and residual oil removed from the inside of the centrifuge tube with a cotton swab. To the pellet was added 1 ml 70% ethanol in water and the suspension sonicated for 5 minutes. The denatured protein was sedimented by centrifugation (11,000×g, 15 min) and the clear supernatant was removed. The supernatant was brought to dryness under a stream of argon, and the resulting residue was fractionated by reverse-phase HPLC (Waters μBondapak C18, 0.78(30 cm), using a mobile phase composed of methanol:water (1:1) containing 0.25% acetic acid at a flow rate of 2 ml/min. The integrated intensity of the peak corresponding S-(N-p-chlorophenyl-N-hydroxycarbamoyl) glutathione was determined at λ=260 nm. Concentrations were extrapolated from standard curves that were linear in the range 0.1 to 4.0 nmoles (r=0.997).
# [4] = test system: B16 melanotic melanoma cells; test: Growth inhibition, B16 melanotic melanoma cells in culture; type: cell-based, murine
# Protocol: As a consequence, they are the strongest competitive inhibitors of human GlxI yet described, Table 1. […] With both cell lines there was some correlation between the Ki values of the enediol analogs and the IC50 values of the corresponding diethyl esters.
# ^d Sp-bromobenzylglutathione diethyl ester. Cells were incubated for
# 48 h in RPMI 1640/10% fetal calf serum (37° C.) in the absence and
# in the presence of enzyme inhibitor. After the initial addition of
# inhibitor at time zero, fresh inhibitor was added every 12 h in order to
# compensate partially for the loss of inhibitor due to spontaneous
# hydrolytic deethylation in the growth medium.
# [5] = n-octanol/water partition coefficient
# human erythrocyte GlxI = conditions: cited from earlier work
# Stability in human serum = type: in vitro ADME
# Protocol: To 0.5 ml portions of either human serum or mouse serum, at 37° C., was added compound 2(Et)2 to an initial concentration of approximately 0.15 mM. As a function of time, 0.1 ml aliquots of the incubation mixture were transferred to separate microfuge tubes. The samples were immediately deproteinized by the addition of 70% ethanol (0.9 ml). After incubation for 30 minutes at 37° C., the protein precipitate was sedimented by centrifugation at […]. The supernatants were then fractionated by reverse-phase HPLC, as described above, and the integrated intensities of the peaks corresponding to 2(Et)2 determined. The rate constants for deethylation were calculated from the first-order rate of loss of 2(Et)2 as a function of time.
# To identify a murine model suitable for in vivo testing of the GlxI inhibitors, the stability of 2(Et)2 was evaluated in human serum and in serum samples obtained from different strains of tumor-bearing mice. In human serum, 2(Et)2 undergoes slow first-order hydrolysis to a mixture of diacid and monoethyl esters, as monitored by reverse-phase HPLC (FIG. 6). For serum samples obtained from four different individuals, T1/2 =9.1±5.3 hours (n=4). […]
# splenic lymphocytes = test: Toxicity toward nonproliferating splenic lymphocytes; type: cell-based
# Excerpt: Conditions: See Table 1. Error bars represent standard deviations for triplicate determinations. Different symbols correspond to experiments carried out on different days.
# This is illustrated for 2(Et)2 and S-p-bromobenzylglutathionediethyl ester by the dose-response curves of FIG. 3. […] Therefore, tumor cells might not be able to detoxify the inhibitors as rapidly as normal cells. In order to determine whether this could be a factor in the present study, the glyoxalase activities in both L1210 cells and splenic lymphocytes were determined. Indeed, while the GlxI activities in the two cell lines are nearly equal, the GlxII activity in L1210 cells is about 10-fold lower than that in splenic lymphocytes. The activities of GlxI and GlxII in L1210 cells were respectively 0.31±0.03 U/mg and 0.02±0.003 U/mg, while the activities in splenic lymphocytes were respectively 0.36±0.03U/mg and 0.20±0.03 U/mg.
# L1210 cells [6] = test: Cell permeability / intracellular appearance of enediol analog in L1210 cells; type: in vitro ADME, murine; remark: listed apart in the source
# [7] = Acyl-interchange reaction with glutathione in a cell-free system; type: physicochemical; conditions: for k2, second order rate constant for acyl-interchange with glutathione: 50 mM potassium phosphate, pH 7.5, 5% ethanol, 25° C.
# Protocol: In principle, an acyl-interchange reaction might serve as the basis of an improved prodrug strategy, provided that the acylating reagent diffuses rapidly across cell membranes and then reacts rapidly with intracellular glutathione to give the enediol analog. Three N-hydroxycarbamate thioethyl esters (2(a-c)) and the corresponding sulfoxides (3(a-c)) were prepared (FIG. 7) and their rates of acyl-interchange with glutathione in a cell free system evaluated (Table II). Sulfoxidation of N,N-di-n-propylcarbamate thioalkyl esters activates these species for acyl-interchange with glutathione. […] The N--OH function appears to inductively activate the sulfoxides for acyl-interchange, as the rate constant for 3a exceeds that of the corresponding N--CH3 derivative 3c by 13-fold. The products of the interchange reactions were confirmed as the corresponding enediol analogs, on the basis that their UV spectra and their migratory properties on a reverse-phase C18 column were identical with those of authentic samples of enediol analog.
# Second order rate constants for the
# acyl-interchange reactions between glutathione and the list thioesters
# CH3 CH2 XC(O)N(Y)Z + GSG ---(k2)--> GSC(O)B(Y)Z +
# Conditions: Potassium phosphate buffer (50 mM), pH 7.5, 5% ethanol, […]
compound,measurement,setting,value
N[C@@H](CCC(=O)N[C@@H](CSCc1ccc(Br)cc1)C(=O)NCC(=O)O)C(=O)O [S-p-bromobenzylglutathione],effect on human leukemia HL60 cells,HL60 cells; literature,both cytostatic and cytotoxic to these cells
CC(=O)C=O [methylglyoxal],inhibition of tumor cells by exogenous methylglyoxal,tumor cells,selective inhibitory activity toward rapidly proliferating tumor cells versus nonproliferating normal cells in vitro; also recorded: inhibit the growth of tumor cells in tissue culture
"CCOC(=O)CNC(=O)[C@H](CSC(=O)N(O)c1ccc(Cl)cc1)NC(=O)CC[C@H](N)C(=O)OCC [2(Et)2, S-(N-p-chlorophenyl N-hydroxycarbamoyl) glutathione diethyl ester]",half-life at 150 µM,"[1]; mouse, serum, DBA/2(C57BL/6 mice, n=5, read-out: T1/2 in serum of plasma esterase-deficient mice (converted)",234 ± 36 min
same,half-life at 150 µM,"[1]; mouse, serum, DBA/2, C57BL/6, NCr nu/nu and CD2 F1 mice, read-out: T1/2, deethylation in mouse serum",< 0.5 min
same,"growth inhibition / cytotoxicity in words, L1210",L1210 cells [2]; L1210 cells in vitro,inhibited the growth
same,cytotoxicity at 100 µM,"L1210 cells [2]; Mus musculus, L1210, 48 h, 100 μM, read-out: killing of L1210 cells",~100%
same,IC50,"L1210 cells [2]; Mus musculus, RPMI 1640/10% fetal calf serum, 37° C., fresh inhibitor every 12 h, mean ± SD, read-out: IC50, 50% growth inhibition, L1210",9.5 ± 3.8 µM
same,intracellular uptake in words,L1210 cells [3]; L1210 cells,rapid increase in intracellular [2] during the first 90 min; also recorded: linear function of extracellular [2(Et)2 ] in the range 0.01 to 1.0 mM; also recorded: Only trace amounts of the monoethyl esters and diethyl ester of 2 were found in the intracellular fractions; also recorded: high intracellular concentrations of the corresponding diacid 2
same,maximum concentration of 2 inside cells versus extracellular concentration of 2(Et)2,L1210 cells [3]; exceeds extracellular,about three-fold
same,apparent first order rate constant for diffusion of diethyl ester into L1210 cells,"L1210 cells [3]; in vitro, 37° C.",0.04 min⁻¹
same,first order rate constant for appearance of 2 inside L1210 cells,L1210 cells [3]; incubated in the presence of 2(Et)2,2.2 h⁻¹
same,"growth inhibition / cytotoxicity in words, B16",[4]; B16 cells in vitro,inhibited the growth
same,IC50,"[4]; Mus musculus, 48 h, RPMI 1640/10% fetal calf serum, 37° C., fresh inhibitor every 12 h, mean ± SD, read-out: IC50, 50% growth inhibition, B16",28 ± 7 µM
same,logP,[5],0.996
same,Ki,"human erythrocyte GlxI; of the unethylated species with human erythrocyte GlxI (17), read-out: Ki, competitive inhibition constant",46 nM
same,first order rate constant for deethylation in human serum,"Stability in human serum; 37° C., FIG. 6",0.147 ± 0.015 h⁻¹
same,half-life at 150 µM,"Stability in human serum; human, serum, n=4, read-out: T1/2 in human serum (converted)",546 ± 318 min
same,decrease in viability of splenic lymphocytes,splenic lymphocytes; 100 μM,less than 50%
same,toxicity to splenic lymphocytes / selectivity in words,splenic lymphocytes; L1210 cells versus splenic lymphocytes,significantly more toxic to L1210 cells than to splenic lymphocytes
"CC[S+]([O-])C(=O)N(O)c1ccc(Cl)cc1 (stereo not drawn) [Compound 3a, S-(N-Hydroxy-N-p-chlorophenylcarbamoyl)ethyl sulfoxide]",reduction of intracellular glutathione concentration,L1210 cells [6],less than 1%
same,first order rate constant for loss of sulfoxide from serum,"[1]; DBA/2 mice, n=3",0.06 ± 0.01 min⁻¹
same,half-life,"[1]; mouse, serum, DBA/2 mice, n=3, read-out: T1/2 of sulfoxide in serum",13 ± 2 min
same,greater potency of sulfoxide versus diethyl ester,L1210 cells [2],10 -fold
same,greater potency of sulfoxide versus diethyl ester,L1210 cells [2]; listed as S-(N-p-chlorophenyl-N-hydroxycarbamoyl)ethylsulfoxide,about 10 -fold
same,IC50,"L1210 cells [2]; Mus musculus, fresh drug every 12 h, read-out: IC50 toward L1210 cells, sulfoxide",0.8 ± 0.5 µM
same,apparent first order rate constant for appearance of enediol analog inside the cells on incubation with sulfoxide,L1210 cells [3],1.41±0.03 min^-1
same,intracellular uptake in words,L1210 cells [3],rapid increase in the intracellular concentration of the corresponding enediol analog
same,maximum intracellular concentration of inhibitor versus extracellular concentration of sulfoxide,L1210 cells [3],about 10 -fold
same,rate of influx of sulfoxide relative to diethyl ester 1(Et)2,L1210 cells [3],35 -fold
same,time to maximum intracellular concentration of inhibitor,L1210 cells [3],about 17 minutes
same,rate constant relative to thioester 2a,[7],exceed by several-fold that with the thioester 2 a
same,"k2, second order rate constant for acyl-interchange with glutathione",[7],1.84 ± 0.07 mM⁻¹ min⁻¹
same,second order rate constant for acyl-interchange reaction,"[7]; 100 mM potassium phosphate, 5% ethanol, pH 7.5, 25° C.",1.84 mM⁻¹ min⁻¹
same,rate constant relative to N--CH3 derivative 3c,[7]; exceeds,13 -fold
C[C@@H](O)C(=O)SC[C@H](NC(=O)CC[C@H](N)C(=O)O)C(=O)NCC(=O)O [S-D-lactoylglutathione],growth of HL60 cells,HL60 cells; literature (25),inhibits the growth of HL60 cells in culture
CC[S+]([O-])C(=O)N(C)O (stereo not shown) [Compound 3b],rate constant relative to thioester 2a,[7],exceed by several-fold that with the thioester 2 a
same,"k2, second order rate constant for acyl-interchange with glutathione",[7],0.59 ± 0.02 mM⁻¹ min⁻¹
"N[C@@H](CCC(=O)N[C@@H](CSC(=O)N(O)c1ccc(Cl)cc1)C(=O)NCC(=O)O)C(=O)O [Compound 2, S-(N-p-chlorophenyl N-hydroxycarbamoyl)glutathione]",intracellular uptake in words,L1210 cells [3]; L1210 cells,no significant time-dependent increase in intracellular [2]
same,logP,[5],< -2
same,Ki,"human erythrocyte GlxI; FIG. 8, read-out: Ki, tight-binding competitive inhibitor of human glyoxalase I",46 nM
